The subject of this test is retinal ganglion cells. In words: Glutamic acid-induced apoptosis of cultured retinal ganglion cells (Hoechst 33342 or calcein AM/propidium iodide staining). The format is cell-based, rat. The conditions noted are these: for apoptosis of retinal cells induced by glutamic acid (apoptosis-like cells): Hoechst 33342. As for the experimental part: The primary culture of the retinal glia cells was carried out using two-day-old Sprague Dawley (SD) baby rats in accordance with a somewhat modified method (Hayashi et al., J. Biol. Chem. 2009) of the method of Barres et al. (Barres, et al., 1988). The isolated retinal glia cells (RGC) were suspended in a base culture medium of a RGC medium (1 mM glutamine, 5 μg/mL insulin, 60 μg/mL N-acetylcysteine, 62 ng/mL progesterone, 16 μg/mL putrescine, 40 ng/mL sodium selenite, 0.1 mg/mL bovine serum albumin, 40 ng/mL triiodothyronine, 0.1 mg/mL transferrin, 1 mM sodium pyruvate, 2% B27 supplement (Invitrogen, Carlsbad, Calif.), 10 μM forskolin (Sigma, St. Louis, Mo.), 50 ng/mL brain-derived neurotrophic factor (BDNF; PeproTech, Rocky Hill, N.J.), 50 ng/mL ciliary neurotrophic factor (CNTF; Peprotech), and 50 ng/mL basic fibroblast growth factor (bFGF; PeproTech). A 96-well plate was coated with poly-d-lysine (Sigma) and laminin (Sigma), and RGC was placed at the rate of 5,000 cells per well for the 96-well place, 5,000 cells per each culture insert for microdish, or 15,000 cells per dish for compartmentalized culture, followed by incubating for at least 10 days before experimentation.
In the figure, Cant represents a non-treated group, Glu represents a group with 300 μM glutamic acid added, and +glial LP represents a group with 300 μM glutamate+glia-cell-derived lipoprotein containing apolipoprotein E added. Glial LP was added in the concentration of 1 μg cholesterol/mL. After treatment, the rate of apoptosis-like cells was computed by observing the aggregation of the nuclei (a: nuclear staining with Hoechst 33342) or the sustained impermeability of esterase activity/membrane (b: calcein AM/Propidium Iodide staining) in 24 hours.
The induction and detection of apoptosis in RGC were performed in the manner as described below. Specifically, RGC was washed twice with Hanks' balanced salt solution (HBSS) containing 2.4 mM CaCl2 and 20 mM HEPES, but not containing magnesium, and incubated at 37° C. for 2 hours in a medium prepared by adding 300 μM glutamate and 10 μM glycine to the above Hanks' balanced salt solution. After treatment with glutamate, RGC was incubated at 37° C. for 22 hours in a RGC culture medium containing no forskolin, BDNF, CNTF and bFGF. In order to detect apoptosis, RGC was stained with 1 μg/mL of Hoechst 33342 (346-07951, Dojindo, Kumamoto, Japan) or 1 μg/mL of calcein-AM/propidium iodide (341-07381, Dojindo). The fluorescence images were observed by Olympus IX71 microscope. The fragmented or aggregated nuclei stained with the above Hoechst reagent were counted as apoptotic nuclei, and round and smooth nuclei were counted as sound nuclei. As the sound nuclei were not stained with propidium iodide, the nuclei stained with propidium iodide were counted as apoptotic nuclei. More than 300 nuclei were counted in each group.
The apoptosis of RGC was measured in the following manner. The RGC subjected to the primary incubated was incubated two times at 37° C. for 15 minutes using Hanks' Balanced Salt Solution (HBSS) containing 2.4 mM CaCl2 and 20 mM 4-(2-hydroxyethyl)-pyperazine-1-ethanesulfonic acid (HEPES) but containing no magnesium and then washed. […], the magnesium was removed from the washing solution. Thereafter, the RGC was treated or not treated with […] (a co-activating agent for the NMDA receptor) in HBSS containing 2.4 mM CaCl2 and 20 mM HEPES (without magnesium) and then incubated at 37° C. for 2 hours. A control (HBSS containing 2.4 mM CaCl2 and 20 mM HEPES (without containing magnesium)) or the RGC treated or not treated with glutamic acid was incubated at 37° C. for 22 hours in the same medium as used for the RGC (without forskolin, brain-derived neurotrophic factor, ciliary neurotrophic factor and basic fibroblast growth factor). […]

Non-standard residues stand in square brackets, D forms with d. Residues, ends and D or L forms follow the SMILES beside them. *: point of attachment. Nle = CCCC[C@H](N)C(=O)O; Cbz = O=C(OCc1ccccc1)*; CH2F = FC*

Take `C[C@]12N[C@H](Cc3ccccc31)c1ccccc12` [MK 801, reference compound]: the “apoptosis of retinal cells induced by glutamic acid (apoptosis-like cells)” value (from here on “apoptosis of retinal cells induced”) (inhibitor 10 μM) was “inhibition of apoptosis”.

Consider `CCCC[C@@H](C=O)NC(=O)[C@H](CC(C)C)NC(=O)[C@H](CC(C)C)NC(C)=O` [ALLN, reference compound] (Ac-Leu-Leu-[Nle]-aldehyde), for which the “apoptosis of retinal cells induced” value (inhibitor 1 μM) is on record as “inhibition of apoptosis”.

On to `COC(=O)C[C@H](NC(=O)[C@H](C)NC(=O)[C@@H](NC(=O)OCc1ccccc1)C(C)C)C(=O)CF` [Z-VAD-FMK, reference compound] (Cbz-Val-Ala-Asp(OMe)-CH2F), for which, where the note is “inhibitor 20 μM”, the “apoptosis of retinal cells induced” value is recorded as “apoptosis inhibition”.

B1: α2-macroglobulin: α2-macroglobulin activated with methylamine; hinders neuroprotection by apoE-containing lipoprotein (protein, UniProt P01023 24-1474, looked up)
Alpha-2-macroglobulin: SVSGKPQYMVLVPSLLHTETTEKGCVLLSYLNETVTVSASLESVRGNRSLFTDLEAENDVLHCVAFAVPKSSSNEEVMFLTVQVKGPTQEFKKRTTVMVKNEDSLVFVQTDKSIYKPGQTVKFRVVSMDENFHPLNELIPLVYIQDPKGNRIAQWQSFQLEGGLKQFSFPLSSEPFQGSYKVVVQKKSGGRTEHPFTVEEFVLPKFEVQVTVPKIITILEEEMNVSVCGLYTYGKPVPGHVTVSICRKYSDASDCHGEDSQAFCEKFSGQLNSHGCFYQQVKTKVFQLKRKEYEMKLHTEAQIQEEGTVVELTGRQSSEITRTITKLSFVKVDSHFRQGIPFFGQVRLVDGKGVPIPNKVIFIRGNEANYYSNATTDEHGLVQFSINTTNVMGTSLTVRVNYKDRSPCYGYQWVSEEHEEAHHTAYLVFSPSKSFVHLEPMSHELPCGHTQTVQAHYILNGGTLLGLKKLSFYYLIMAKGGIVRTGTHGLLVKQEDMKGHFSISIPVKSDIAPVARLLIYAVLPTGDVIGDSAKYDVENCLANKVDLSFSPSQSLPASHAHLRVTAAPQSVCALRAVDQSVLLMKPDAELSASSVYNLLPEKDLTGFPGPLNDQDNEDCINRHNVYINGITYTPVSSTNEKDMYSFLEDMGLKAFTNSKIRKPKMCPQLQQYEMHGPEGLRVGFYESDVMGRGHARLVHVEEPHTETVRKYFPETWIWDLVVVNSAGVAEVGVTVPDTITEWKAGAFCLSEDAGLGISSTASLRAFQPFFVELTMPYSVIRGEAFTLKATVLNYLPKCIRVSVQLEASPAFLAVPVEKEQAPHCICANGRQTVSWAVTPKSLGNVNFTVSAEALESQELCGTEVPSVPEHGRKDTVIKPLLVEPEGLEKETTFNSLLCPSGGEVSEELSLKLPPNVVEESARASVSVLGDILGSAMQNTQNLLQMPYGCGEQNMVLFAPNIYVLDYLNETQQLTPEIKSKAIGYLNTGYQRQLNYKHYDGSYSTFGERYGRNQGNTWLTAFVLKTFAQARAYIFIDEAHITQALIWLSQRQKDNGCFRSSGSLLNNAIKGGVEDEVTLSAYITIALLEIPLTVTHPVVRNALFCLESAWKTAQEGDHGSHVYTKALLAYAFALAGNQDKRKEVLKSLNEEAVKKDNSVHWERPQKPKAPVGHFYEPQAPSAEVEMTSYVLLAYLTAQPAPTSEDLTSATNIVKWITKQQNAQGGFSSTQDTVVALHALSKYGAATFTRTGKAAQVTIQSSGTFSSKFQVDNNNRLLLQQVSLPELPGEYSMKVTGEGCVYLQTSLKYNILPEKEEFPFALGVQTLPQTCDEPKAHTSFQISLSVSYTGSRSASNMAIVDVKMVSGFIPLKPTVKMLERSNHVSRTEVSSNHVLIYLDKVSNQTLSLFFTVLQDVPVRDLKPAIVKVYDYYETDEFAIAEYNAPCSKDLGNA
With B1, the “effect on the neuroprotective effects of the lipoprotein containing apoE” value (Glu+100 ng protein/mL E-LP in the presence of a2M) is recorded as “hinders the neuroprotective effects”.
